The results in this text go back to patent US9265253B2, “Use of macrocyclic picolinamides as fungicides” (DOW AGROSCIENCES LLC, priority 2013, dated 2016).

Assay type in all cases: in vivo
In one assay the test system is Rhyncosporium secalis. As to the kind of experiment: Barley Scald (RHYNSE) disease control. The note with it: 1 Day Protectant; for pest or weed control at 100 ppm: Hordeum vulgare, 24 h, read-out: Disease Control RHYNSE 1 DP. The procedure:
Technical grades of materials were dissolved in acetone, which were then mixed with nine volumes of water containing 110 ppm Triton X-100. The fungicide solutions were applied onto wheat seedlings using an automated booth sprayer to run-off. All sprayed plants were allowed to air dry prior to further handling. All fungicides were evaluated using the aforementioned method for their activity vs. all target diseases. Wheat leaf blotch and brown rust activity were also evaluated using track spray applications, in which case the fungicides were formulated as EC formulations, containing 0.1% Trycol 5941 in the spray solutions. Wheat plants (variety Yuma) were grown from seed in a greenhouse in 50% mineral soil/50% soil-less Metro mix until the first leaf was fully emerged, with 7-10 seedlings per pot. These plants were inoculated with an aqueous spore suspension of Septoria tritici either prior to or after fungicide treatments. After inoculation the plants were kept in 100% relative humidity (one day in a dark dew chamber followed by two to three days in a lighted dew chamber at 20° C.) to permit spores to germinate and infect the leaf. The plants were then transferred to a greenhouse set at 20° C. for disease to develop. When disease symptoms were fully expressed on the 1st leaves of untreated plants, infection levels were assessed on a scale of 0 to 100 percent disease severity. Percent disease control was calculated using the ratio of disease severity on treated plants relative to untreated plants. Barley seedlings (variety Harrington) were propagated in soil-less Metro mix, with each pot having 8 to 12 plants, and used in the test when first leaf was fully emerged. Test plants were inoculated by an aqueous spore suspension of Rhyncosporium secalis 24 hr after fungicide treatments. After inoculation the plants were kept in a dew room at 20° C. with 100% relative humidity for 48 hr. The plants were then transferred to a greenhouse set at 20° C. for disease to develop. Fungicide formulation, application and disease assessment on the sprayed leaves followed the procedures as described in the Example A.

The next assay concerns Venturia inaequalis. Nature of the assay: Apple Scab (VENTIN) disease control. Particulars: 1 Day Protectant; for pest or weed control at 100 ppm: Venturia inaequalis, topical, 24 h, read-out: Disease Control VENTIN 1 DP. The protocol: Technical grades of materials were dissolved in acetone, which were then mixed with nine volumes of water containing 110 ppm Triton X-100. The fungicide solutions were applied onto wheat seedlings using an automated booth sprayer to run-off. All sprayed plants were allowed to air dry prior to further handling. All fungicides were evaluated using the aforementioned method for their activity vs. all target diseases. Wheat leaf blotch and brown rust activity were also evaluated using track spray applications, in which case the fungicides were formulated as EC formulations, containing 0.1% Trycol 5941 in the spray solutions. Wheat plants (variety Yuma) were grown from seed in a greenhouse in 50% mineral soil/50% soil-less Metro mix until the first leaf was fully emerged, with 7-10 seedlings per pot. These plants were inoculated with an aqueous spore suspension of Septoria tritici either prior to or after fungicide treatments. After inoculation the plants were kept in 100% relative humidity (one day in a dark dew chamber followed by two to three days in a lighted dew chamber at 20° C.) to permit spores to germinate and infect the leaf. The plants were then transferred to a greenhouse set at 20° C. for disease to develop. When disease symptoms were fully expressed on the 1st leaves of untreated plants, infection levels were assessed on a scale of 0 to 100 percent disease severity. Percent disease control was calculated using the ratio of disease severity on treated plants relative to untreated plants. Apple seedlings (variety McIntosh) were grown in soil-less Metro mix, with one plant per pot. Seedlings with two expanding young leaves at the top (older leaves at bottom of the plants were trimmed) were used in the test. Plants were inoculated with a spore suspension of Venturia inaequalis 24 hr after fungicide treatment and kept in a 22° C. dew chamber with 100% RH for 48 hr, and then moved to a greenhouse set at 20° C. for disease to develop. Fungicide formulation, application and disease assessment on the sprayed leaves followed the procedures as described in the Example A.

The next assay concerns Leptosphaeria nodorum. Nature of the assay: Wheat Glume Blotch (LEPTNO) disease control. The note with it: 1 Day Protectant; for pest or weed control at 100 ppm: Parastagonospora nodorum, topical, 24 h, read-out: Disease Control LEPTNO 1 DP. The protocol:
Technical grades of materials were dissolved in acetone, which were then mixed with nine volumes of water containing 110 ppm Triton X-100. The fungicide solutions were applied onto wheat seedlings using an automated booth sprayer to run-off. All sprayed plants were allowed to air dry prior to further handling. All fungicides were evaluated using the aforementioned method for their activity vs. all target diseases. Wheat leaf blotch and brown rust activity were also evaluated using track spray applications, in which case the fungicides were formulated as EC formulations, containing 0.1% Trycol 5941 in the spray solutions. Wheat plants (variety Yuma) were grown from seed in a greenhouse in 50% mineral soil/50% soil-less Metro mix until the first leaf was fully emerged, with 7-10 seedlings per pot. These plants were inoculated with an aqueous spore suspension of Septoria tritici either prior to or after fungicide treatments. After inoculation the plants were kept in 100% relative humidity (one day in a dark dew chamber followed by two to three days in a lighted dew chamber at 20° C.) to permit spores to germinate and infect the leaf. The plants were then transferred to a greenhouse set at 20° C. for disease to develop. When disease symptoms were fully expressed on the 1st leaves of untreated plants, infection levels were assessed on a scale of 0 to 100 percent disease severity. Percent disease control was calculated using the ratio of disease severity on treated plants relative to untreated plants. Wheat plants (variety Yuma) were grown from seed in a greenhouse in 50% mineral soil/50% soil-less Metro mix until the first leaf was fully emerged, with 7-10 seedlings per pot. These plants were inoculated with an aqueous spore suspension of Leptosphaeria nodorum 24 hr after fungicide treatments. After inoculation the plants were kept in 100% relative humidity (one day in a dark dew chamber followed by two days in a lighted dew chamber at 20° C.) to permit spores to germinate and infect the leaf. The plants were then transferred to a greenhouse set at 20° C. for disease to develop. Fungicide formulation, application and disease assessment followed the procedures as described in the Example A.

The test system of assay [1] is Magnaporthe grisea; Anamorph: Pyricularia oryzae. Nature of the assay: whole plant or invertebrate. The note with it: for pest or weed control at 100 ppm: Pyricularia oryzae, topical, 24 h, read-out: Disease Control PYRIOR 1 DP.

On to `CCCO[C@@H]1[C@@H](CCC(C)C)CCC[C@H](NC(=O)c2nccc(OC)c2OC(C)=O)C(=O)O[C@H]1C` [Compound F64], for which the pest or weed control at 100 ppm is 80 to 100% with Rhyncosporium secalis, 0 to 80% in the assay with Venturia inaequalis, 80 to 100% in the assay on Leptosphaeria nodorum and 80 to 100% in assay [1].
On to `COc1ccnc(C(=O)N[C@H]2CCC[C@H](Cc3ccc(F)cc3)[C@@H](OCC3CC3)[C@H](C)OC2=O)c1OC(C)=O` [Compound F67], for which the pest or weed control at 100 ppm in the assay on Rhyncosporium secalis was 80 to 100%; in the assay with Venturia inaequalis, 0 to 80%; in the assay on Leptosphaeria nodorum it was 80 to 100%; in assay [1], 80 to 100%.
Consider `COc1ccnc(C(=O)N[C@H]2CCC[C@H](Cc3ccccc3)[C@@H](OCC(C)C)[C@H](C)OC2=O)c1OC(C)=O` [Compound F70], for which the pest or weed control at 100 ppm in the assay with Rhyncosporium secalis lay within 80 to 100%; in the assay on Venturia inaequalis, 0 to 80%; in the assay on Leptosphaeria nodorum, 80 to 100%; in assay [1] it was 80 to 100%.
`COCC[C@H]1CCC[C@H](NC(=O)c2nccc(OC)c2OC(C)=O)C(=O)O[C@@H](C)[C@@H]1Oc1ccccc1` [Compound F78]: the pest or weed control at 100 ppm in the assay with Rhyncosporium secalis is 80 to 100%; in the assay with Venturia inaequalis, 0 to 80%; in the assay on Leptosphaeria nodorum, 80 to 100%; in assay [1], 80 to 100%.
Turning to `C=C[C@H]1CCC[C@H](NC(=O)c2nccc(OC)c2OC(C)=O)C(=O)O[C@@H](C)[C@@H]1Oc1ccccc1` [Compound F86], the pest or weed control at 100 ppm was 80 to 100% in the assay with Rhyncosporium secalis, 0 to 80% in the assay on Venturia inaequalis, 80 to 100% in the assay with Leptosphaeria nodorum and 80 to 100% in assay [1].
Turning to `CCCO[C@@H]1[C@@H](CCC(C)C)CCC[C@H](NC(=O)c2nccc(OC)c2OCOC(C)=O)C(=O)O[C@H]1C` [Compound F92], the pest or weed control at 100 ppm (with Rhyncosporium secalis; with Venturia inaequalis; in the assay on Leptosphaeria nodorum; in assay [1]) was 80 to 100% throughout.
Turning to `COc1ccnc(C(=O)N[C@H]2CCC[C@H](Cc3ccc(F)cc3)[C@@H](OCC3CC3)[C@H](C)OC2=O)c1OCOC(C)=O` [Compound F96], the pest or weed control at 100 ppm in the assay with Rhyncosporium secalis was 80 to 100%; in the assay with Venturia inaequalis, 0 to 80%; in the assay on Leptosphaeria nodorum, 80 to 100%; in assay [1], 80 to 100%.
`COc1ccnc(C(=O)N[C@H]2CCC[C@H](Cc3ccc(F)cc3)[C@@H](OCC3CC3)[C@H](C)OC2=O)c1OCOC(C)=O` [Compound F98]: the “Disease Control RHYNSE 1 DP” value in the assay with Rhyncosporium secalis (100 ppm) is given as “A (80-100)”. Moreover, in the assay on Venturia inaequalis (100 ppm), the “Disease Control VENTIN 1 DP” value was “B (More than 0-Less than 80)”. In addition, in the assay on Leptosphaeria nodorum (100 ppm), the “Disease Control LEPTNO 1 DP” value is given as “A (80-100)”. Besides, in assay [1] (100 ppm, 1 Day Protectant, Rice Blast), the “Disease Control PYRIOR 1 DP” value is given as “A (80-100)”.
With `COc1ccnc(C(=O)N[C@H]2CCC[C@H](Cc3ccccc3)[C@@H](OCC(C)C)[C@H](C)OC2=O)c1OCOC(C)=O` [Compound F106], the pest or weed control at 100 ppm was 80 to 100% in the assay with Rhyncosporium secalis, 0 to 80% in the assay with Venturia inaequalis, 80 to 100% in the assay on Leptosphaeria nodorum and 80 to 100% in assay [1].
As for `COc1ccnc(C(=O)N[C@H]2CCC[C@H](Cc3ccccc3)[C@@H](Oc3ccccc3)[C@H](C)OC2=O)c1OCOC(C)=O` [Compound F108], the pest or weed control at 100 ppm in the assay with Rhyncosporium secalis was 80 to 100%; in the assay with Venturia inaequalis it was 0 to 80%; in the assay on Leptosphaeria nodorum, 80 to 100%; in assay [1], 80 to 100%.
For `CCCO[C@@H]1[C@@H](Cc2ccccc2)CCC[C@H](NC(=O)c2nccc(OC)c2OCOC(C)=O)C(=O)O[C@H]1C` [Compound F109], the pest or weed control at 100 ppm (in the assay with Rhyncosporium secalis; with Venturia inaequalis; in the assay with Leptosphaeria nodorum; in assay [1]) was 80 to 100% throughout.
Turning to `COc1ccnc(C(=O)N[C@H]2CCC[C@H](Cc3ccccc3)[C@@H](OC3CCCC3)[C@H](C)OC2=O)c1OCOC(C)=O` [Compound F110], the pest or weed control at 100 ppm lay within 80 to 100% in the assay with Rhyncosporium secalis, 0 to 80% with Venturia inaequalis, 80 to 100% in the assay with Leptosphaeria nodorum and 80 to 100% in assay [1].
On to `COc1ccnc(C(=O)N[C@H]2CCC[C@H](CC3CCCC3)[C@@H](OCC3CC3)[C@H](C)OC2=O)c1OCOC(C)=O` [Compound F117], for which the pest or weed control at 100 ppm (in the assay with Rhyncosporium secalis; in the assay with Venturia inaequalis; in the assay on Leptosphaeria nodorum; in assay [1]) was 80 to 100% throughout.
`COc1ccnc(C(=O)N[C@H]2CCC[C@H](CCF)[C@@H](OCC(C)C)[C@H](C)OC2=O)c1OCOC(C)=O` [Compound F128, ((2-(((3S,7R,8R,9S)-7-(2-fluoroethyl)-8-isobutoxy-9-methyl-2-oxooxonan-3-yl)carbamoyl)-4-methoxypyridin-3-yl)oxy)methyl acetate]: the pest or weed control at 100 ppm in the assay on Rhyncosporium secalis lay in the range of 0 to 80%; with Venturia inaequalis, 0 to 80%; in the assay on Leptosphaeria nodorum, 80 to 100%; in assay [1], 80 to 100%.
Consider `COCC[C@H]1CCC[C@H](NC(=O)c2nccc(OC)c2OCOC(C)=O)C(=O)O[C@@H](C)[C@@H]1Oc1ccccc1` [Compound F130], for which the pest or weed control at 100 ppm in the assay with Rhyncosporium secalis lay within 80 to 100%; in the assay on Venturia inaequalis, 0 to 80%; in the assay with Leptosphaeria nodorum, 80 to 100%; in assay [1], 80 to 100%.
As for `C=C[C@H]1CCC[C@H](NC(=O)c2nccc(OC)c2OCOC(C)=O)C(=O)O[C@@H](C)[C@@H]1Oc1ccccc1` [Compound F146], the pest or weed control at 100 ppm (with Rhyncosporium secalis; in the assay with Venturia inaequalis; with Leptosphaeria nodorum; in assay [1]) was 80 to 100% in each case.
Take `CCCO[C@@H]1[C@@H](CCC(C)C)CCC[C@H](NC(=O)c2nccc(OC)c2OCOC(=O)COCC)C(=O)O[C@H]1C` [Compound F161]: the pest or weed control at 100 ppm (in the assay on Rhyncosporium secalis; in the assay with Venturia inaequalis; in the assay on Leptosphaeria nodorum; in assay [1]) was 80 to 100% in each case.
